pIC50: −log10 of the molar value. Converted amounts (≈) assume the structure as drawn.
What was measured:
HeLa CD4 LTR β-gal cells [1] = assay: HIV attachment inhibition assay (β-galactosidase chemiluminescence)
gp120/CD4 interaction [2] = target: T1, gp120/CD4 interaction (Human immunodeficiency virus type 1 group M subtype B, UniProt P03375)
HeLa CD4 LTR β-gal cells [3] = assay: Compound toxicity in HeLa CD4 LTR β-gal cells (XTT)
gp120/CD4 interaction [4] = target: T1, gp120/CD4 interaction; assay: cell-based

Structure (SMILES): COc1cc(-c2ccc(/N=N/c3ccc4c(S(=O)(=O)O)cc(S(=O)(=O)O)c(N)c4c3O)c(OC)c2)ccc1/N=N/c1ccc2c(S(=O)(=O)O)cc(S(=O)(=O)O)c(N)c2c1O [Chicago Sky Blue]
- IC50 (HeLa CD4 LTR β-gal cells [1]; Human immunodeficiency virus 1, HeLa): 0.53 µg/mL (≈ 0.586 µM)
- TI (=IC50/TC50) (HeLa CD4 LTR β-gal cells [1]; general virus attachment): >18
- TI (=IC50/TC50) (gp120/CD4 interaction [2]): >5
- TC50 (HeLa CD4 LTR β-gal cells [3]; Table 10, XTT sister plate): >10 µg/mL
- TC50 (HeLa CD4 LTR β-gal cells [3]; Table 11): >10 µg/mL
- pIC50 (gp120/CD4 interaction [4]): 5.64

— patent US6534049B2, “Synthetic soil-extract materials and medicaments for human immunodeficiency viruses based thereon” (priority 1997, dated 2003)
